The target in test [1] is T1, Stimulator of interferon genes protein (Homo sapiens, UniProt Q86WV6). As to the kind of experiment: Agonist activity at STING in human […] KO-STING cells incubated for 20 hrs by Quanti-luc reagent based assay. In kind it is cell-based, THP1-Dual KO-STING.
For test [2], the target named is T1, Stimulator of interferon genes protein. Put plainly: Agonist activity at STING in human THP1-Dual cells incubated for 20 hrs by Quanti-luc reagent based assay. The class given is cell-based.
A short description of test [3]: Cytotoxicity against human THP1-Dual KO-STING cells assessed as inhibition of cell growth by MTS assay. The class given is functional, cell-based.
The next test relates to THP1-Dual. Put plainly: Cytotoxicity against human THP1-Dual habouring STING assessed as inhibition of cell growth by MTS assay. In kind it is functional, cell-based. For orientation: Tetrazolium dyes change colour on reduction, which living cells bring about.

Bounds are passed on as bounds.

In general, EC50 refers to the concentration that produces a half-maximal response. Usually IC50 stands for the concentration that inhibits the measured activity by half.

T1 sequence (Q86WV6 whole entry): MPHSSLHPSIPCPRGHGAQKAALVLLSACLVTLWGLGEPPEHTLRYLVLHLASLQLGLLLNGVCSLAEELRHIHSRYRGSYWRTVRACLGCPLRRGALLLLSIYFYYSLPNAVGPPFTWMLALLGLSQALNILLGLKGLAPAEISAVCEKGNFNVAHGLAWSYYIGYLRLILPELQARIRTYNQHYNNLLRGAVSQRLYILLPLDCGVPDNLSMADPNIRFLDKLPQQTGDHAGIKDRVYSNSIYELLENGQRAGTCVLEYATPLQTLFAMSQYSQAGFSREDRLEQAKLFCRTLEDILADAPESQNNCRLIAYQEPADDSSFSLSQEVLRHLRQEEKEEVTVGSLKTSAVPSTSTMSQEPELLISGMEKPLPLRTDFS

Consider `CCn1nc(C)cc1C(=O)Nc1nc2cc(C(N)=O)cc(OC)c2n1C/C=C/CNC1CCOCC1`, for which the EC50 in test [1] and in test [2] was more than 100 µM each time. In addition, the IC50 (in test [3]; in the test on THP1-Dual) was more than 100 µM each time.
Consider `CCn1nc(C)cc1C(=O)Nc1nc2cc(C(N)=O)cc(OCCCOC)c2n1NCCCNC(=O)c1ccc2ccccc2c1`, for which the EC50 is more than 100 µM in test [1] and 0.53 µM in test [2]. Also, the 50% inhibitory concentration (IC50) in test [3] was 14.8 µM; in the test with THP1-Dual, 10.6 µM.
Taken in the same sequence, the figures for `CCn1nc(C)cc1C(=O)Nc1nc2cc(C(N)=O)cc(OC)c2n1C/C=C/CNC(=O)c1ccc2ccccc2c1` were more than 100 µM, more than 100 µM, more than 100 µM and more than 100 µM.
As to `CCn1nc(C)cc1C(=O)Nc1nc2cc(C(N)=O)cc(OC)c2n1CCOCCNC(=O)c1ccc(C(F)(F)F)cc1`, the EC50 in test [1] and in test [2] was more than 100 µM each time. The IC50 (in test [3]; with THP1-Dual) was more than 100 µM in each case.
In the case of `CCn1nc(C)cc1C(=O)Nc1nc2cc(C(N)=O)cc(OC)c2n1CCCC(=O)Nc1ccc2ccccc2c1`, the EC50 in test [1] was more than 100 µM; in test [2] it was 9.83 µM. For the same compound, the IC50 (in test [3]; with THP1-Dual) was more than 100 µM in each case.
As to `CCn1nc(C)cc1C(=O)Nc1nc2cc(C(N)=O)cc(OC)c2n1C/C=C/CNC1CCC(N(C)C)CC1` (stereo unspecified), the EC50 in test [1] and in test [2] was more than 100 µM each time. In addition, the IC50 (in test [3]; in the test with THP1-Dual) was more than 100 µM in each case.
As to `CCn1nc(C)cc1C(=O)Nc1nc2cc(C(N)=O)cc(OC)c2n1C/C=C/CNC(=O)c1ccoc1`, the EC50 in test [1] and in test [2] was more than 100 µM throughout. Moreover, the IC50 (in test [3]; with THP1-Dual) was more than 100 µM throughout.
As for `CCn1nc(C)cc1C(=O)Nc1nc2cc(C(N)=O)cc(OC)c2n1NCCCC(=O)NCc1ccc(Cl)cc1`, the EC50 in test [1] was more than 100 µM; in test [2], 3.22 µM. In addition, the IC50 (in test [3]; in the test on THP1-Dual) was more than 100 µM each time.
As for `CCn1nc(C)cc1C(=O)Nc1nc2cc(C(N)=O)cc(OC)c2n1CCCC(=O)NCc1ccc2ccccc2c1`, the results for the EC50 in test [1] and in test [2] were more than 100 µM and 7.04 µM, respectively. In addition, the IC50 (in test [3]; with THP1-Dual) was more than 100 µM each time.
For `CCn1nc(C)cc1C(=O)Nc1nc2cc(C(N)=O)cc(OC)c2n1C/C=C/CNC(=O)Cc1cnccn1`, the EC50 in test [1] and in test [2] was more than 100 µM each time. For the same compound, the IC50 (in test [3]; in the test on THP1-Dual) was more than 100 µM throughout.
For the compound `CCn1nc(C)cc1C(=O)Nc1nc2cc(C(N)=O)cc(OC)c2n1Cc1cn(Cc2ccc3ccccc3c2)nn1`, the EC50 in test [1] and in test [2] was more than 100 µM each time. Further, the IC50 (in test [3]; in the test with THP1-Dual) was more than 100 µM throughout.
Consider `CCn1nc(C)cc1C(=O)Nc1nc2cc(C(N)=O)cc(OC)c2n1NCCCNC(=O)Nc1ccc2ccccc2c1`, for which the EC50 in test [1] and in test [2] was more than 100 µM in each case. Also, the IC50 (in test [3]; in the test with THP1-Dual) was more than 100 µM in each case.
Consider `CCn1nc(C)cc1C(=O)Nc1nc2cc(C(N)=O)cc(OC)c2n1C/C=C/CNC(=O)c1cnccn1`, for which the EC50 in test [1] and in test [2] was more than 100 µM in each case. Further, the IC50 (in test [3]; in the test on THP1-Dual) was more than 100 µM in each case.
`CCn1nc(C)cc1C(=O)Nc1nc2cc(C(N)=O)cc(OCCCN3CCOCC3)c2n1NCCCNC(=O)c1ccc2ccccc2c1`: the EC50 in test [1] was more than 100 µM; in test [2], 2.19 µM. Further, the IC50 came to 28.1 µM in test [3] and 18.6 µM with THP1-Dual.
Regarding `CCn1nc(C)cc1C(=O)Nc1nc2cc(C(N)=O)cc(OC)c2n1CCOCCNC(=O)c1ccc2ccccc2c1`, the EC50 in test [1] and in test [2] was more than 100 µM in each case. In addition, the IC50 (in test [3]; in the test on THP1-Dual) was more than 100 µM each time.
For the compound `CCn1nc(C)cc1C(=O)Nc1nc2cc(C(N)=O)cc(OC)c2n1CCCN1CCN(Cc2ccc3ccccc3c2)C(=O)C1`, the EC50 in test [1] and in test [2] was more than 100 µM each time. The IC50 (in test [3]; with THP1-Dual) was more than 100 µM throughout.
Take `CCn1nc(C)cc1C(=O)Nc1nc2cc(C(N)=O)cc(OC)c2n1C/C=C/Cn1c(C)nc2cc(C(N)=O)ccc21`: the EC50 in test [1] and in test [2] was more than 100 µM in each case. Also, the IC50 (in test [3]; in the test with THP1-Dual) was more than 100 µM throughout.
As for `CCn1nc(C)cc1C(=O)Nc1nc2cc(C(N)=O)cc(OC)c2n1C/C=C/Cn1c(C(F)(F)F)nc2cc(C(N)=O)ccc21`, the EC50 in test [1] and in test [2] was more than 100 µM each time. The IC50 (in test [3]; in the test with THP1-Dual) was more than 100 µM in each case.
As to `CCn1nc(C)cc1C(=O)Nc1nc2cc(C(N)=O)cc(OC)c2n1C/C=C/CNC(=O)c1ccccn1`, the EC50 in test [1] and in test [2] was more than 100 µM throughout. Further, the IC50 (in test [3]; in the test on THP1-Dual) was more than 100 µM in each case.
With `CCn1nc(C)cc1C(=O)Nc1nc2cc(C(N)=O)cc(OCCCN3CCOCC3)c2n1NCCCC(=O)NCc1ccc(F)cc1`, the EC50 in test [1] was more than 100 µM; in test [2], 9.73 µM. Moreover, the IC50 (in test [3]; in the test with THP1-Dual) was more than 100 µM throughout.
As for `CCn1nc(C)cc1C(=O)Nc1nc2cc(C(N)=O)cc(OC)c2n1C/C=C/CNC(=O)Cc1ccc(C(F)(F)F)cc1`, the EC50 in test [1] and in test [2] was more than 100 µM in each case. Further, the half-maximal inhibitory concentration (IC50) (in test [3]; in the test with THP1-Dual) was more than 100 µM throughout.
`CCn1nc(C)cc1C(=O)Nc1nc2cc(C(N)=O)cc(OC)c2n1C/C=C/CNC(=O)c1cnc(C(F)(F)F)cn1`: the EC50 in test [1] and in test [2] was more than 100 µM each time. Moreover, the IC50 (in test [3]; with THP1-Dual) was more than 100 µM in each case.
Regarding `CCn1nc(C)cc1C(=O)Nc1nc2cc(C(N)=O)cc(OC)c2n1NCCCC(=O)NCc1ccc(C(F)(F)F)cc1`, the figures for the EC50 in test [1] and in test [2] were more than 100 µM and 13 µM, respectively. Moreover, the IC50 (in test [3]; in the test on THP1-Dual) was more than 100 µM each time.
`CCn1nc(C)cc1C(=O)Nc1nc2cc(C(N)=O)cc(OCC3COC3)c2n1NCCCNC(=O)c1ccc2ccccc2c1`: the figures for the EC50 in test [1] and in test [2] were more than 100 µM and 39.4 µM, respectively. The results for the IC50 (in test [3]; in the test with THP1-Dual) were 18.2 µM and 11.3 µM, respectively.
The like results for `CCn1nc(C)cc1C(=O)Nc1nc2cc(C(N)=O)cc(OC)c2n1C/C=C/CNC(=O)c1cc(F)nc(F)c1` were, in that order, more than 100 µM, more than 100 µM, more than 100 µM and more than 100 µM.
For `CCn1nc(C)cc1C(=O)Nc1nc2cc(C(N)=O)cc(OC)c2n1C/C=C/CNC(=O)Cc1ccccc1`, the EC50 in test [1] and in test [2] was more than 100 µM in each case. The IC50 (in test [3]; with THP1-Dual) was more than 100 µM throughout.
With `CCn1nc(C)cc1C(=O)Nc1nc2cc(C(N)=O)cc(OC)c2n1C/C=C/CNC(=O)c1cnc2ccccc2c1`, the EC50 in test [1] and in test [2] was more than 100 µM each time. Besides, the IC50 (in test [3]; in the test on THP1-Dual) was more than 100 µM throughout.
In the case of `CCn1nc(C)cc1C(=O)Nc1nc2cc(C(N)=O)cc(OC)c2n1CCCC(=O)Nc1ccccc1`, the EC50 in test [1] was more than 100 µM; in test [2], 9.81 µM. The IC50 (in test [3]; in the test on THP1-Dual) was more than 100 µM each time.
Regarding `CCn1nc(C)cc1C(=O)Nc1nc2cc(C(N)=O)cc(OC)c2n1NCCCC(=O)NCc1cc(F)cc(F)c1`, the EC50 in test [1] was more than 100 µM; in test [2], 5.14 µM. Also, the IC50 (in test [3]; with THP1-Dual) was more than 100 µM in each case.
